Reference: PMC12752606, “METTL10‐Mediated PIAS3 Methylation Links Purine Metabolism to Gastric Cancer Progression” (Advanced Science, 2025)
Read-outs that look alike come from different tables or passages of the source.

Assay: Plasma pharmacokinetics after IV and PO administration
Type: in vivo, male Sprague–Dawley rats
Details: male, Sprague-Dawley, rat, plasma; for bioavailability: PO 10 mg/kg vs IV 1 mg/kg
Procedure: LZQ‐02‐023‐1 was administered to male Sprague–Dawley (SD) rats (n = 3 per group) via intravenous injection at a dose of 1 mg/kg or oral gavage at a dose of 10 mg/kg. Blood samples were collected at predetermined time points, and plasma concentrations of LZQ‐02‐023‐1 were determined using a validated LC‐MS/MS method. Briefly, working solutions of the analyte were prepared by diluting stock solutions with 50% acetonitrile in water to achieve serial concentrations (10, 20, 50, 100, 200, 500, 1000, 5000, and 10 000 ng/mL). Calibration standards were prepared by spiking 5 µL of working solution into 50 µL of blank SD rat plasma, resulting in final concentrations of 1, 2, 5, 10, 20, 50, 100, 500, and 1000 ng/mL in a total volume of 55 µL. Quality control (QC) samples were independently prepared at four concentrations (2, 5, 50, and 800 ng/mL) using blank SD rat plasma, following the same procedure as for the calibration standards. On the day of analysis, 55 µL of each calibration standard, QC sample, or unknown sample (prepared by mixing 50 µL of SD rat plasma with 5 µL of blank solution) was added to 200 µL of acetonitrile:methanol (1:1, v/v) containing an internal standard (IS) mixture for protein precipitation. The samples were vortexed for 30 s, centrifuged at 4000 rpm for 15 min at 4 °C, and the resulting supernatant was diluted threefold with water. A 10 µL aliquot of the diluted supernatant was injected into an AB Sciex Triple Quad 5500 LC‐MS/MS system for quantitative analysis. Pharmacokinetic parameters, including the maximum plasma concentration (Cmax), time to reach Cmax (Tmax), elimination half‐life (t1⁄2), area under the plasma concentration‐time curve (AUC0–t and AUC0–∞), clearance (CL), and volume of distribution (Vd), were calculated using noncompartmental analysis (NCA) in Phoenix WinNonlin 8.3 (Certara; Table S3, Supporting Information).

[1] = iv, 1 mg/kg, IV 1 mg/kg, individual rats R01-R03, read-out: Plasma concentration
[2] = iv, 1 mg/kg, IV 1 mg/kg, read-out: Plasma concentration, mean
[3] = po, 10 mg/kg, PO 10 mg/kg, read-out: Plasma concentration, mean
[4] = po, 10 mg/kg, PO 10 mg/kg, individual rats R04-R06, read-out: Plasma concentration

## Cc1ccc(Nc2ncc3c(n2)N(C)C(=O)N(c2cccc(N)c2)C3)cn1 [LZQ-02-023-01, Three‐(3‐aminophenyl)‐1‐methyl‐7‐((6‐methylpyridin‐3‐yl)amino)‐3,4‐dihydropyrimido [4,5‐d] pyrimidin‐2 (1H)‐one]
[1]
  concentration at 0.25 h: 28.6 ng/mL
  concentration at 0.5 h: 10.9 ng/mL
  concentration at 1 h: 4.26 ng/mL
  concentration at 2 h: 2.35 ng/mL
[2]
  concentration at 0.25 h: 30.3 ng/mL
  concentration at 0.5 h: 13.1 ng/mL
  concentration at 1 h: 4.21 ng/mL
  concentration at 2 h: 2.11 ng/mL
iv, 1 mg/kg, IV 1 mg/kg, individual rats R01-R03, read-out: AUCInf
  AUC(0-inf): 168 ng·h/mL
iv, 1 mg/kg, IV 1 mg/kg, individual rats R01-R03, read-out: AUClast
  AUC(0-t): 165 ng·h/mL
iv, 1 mg/kg, IV 1 mg/kg, individual rats R01-R03, read-out: C0
  C0: 2110 ng/mL
iv, 1 mg/kg, IV 1 mg/kg, individual rats R01-R03, read-out: Cl_obs
  clearance: 99.3 mL/min/kg
iv, 1 mg/kg, IV 1 mg/kg, individual rats R01-R03, read-out: MRTInf_obs
  MRT inf: 7.8 min
iv, 1 mg/kg, IV 1 mg/kg, individual rats R01-R03, read-out: T1/2 (converted)
  half-life: 43.3 min
iv, 1 mg/kg, IV 1 mg/kg, read-out: AUCInf, mean
  AUC(0-inf): 178 ng·h/mL
iv, 1 mg/kg, IV 1 mg/kg, read-out: AUClast, mean
  AUC(0-t): 176 ng·h/mL
iv, 1 mg/kg, IV 1 mg/kg, read-out: Cl_obs, mean
  clearance: 94.2 mL/min/kg
iv, 1 mg/kg, IV 1 mg/kg, read-out: MRTInf_obs, mean
  MRT inf: 6.96 min
iv, 1 mg/kg, IV 1 mg/kg, read-out: T1/2, mean (converted)
  half-life: 37.2 min
iv, 1 mg/kg, IV administration, male SD rats, read-out: Plasma half-life (converted)
  half-life: ~37.2 min
po, 10 mg/kg, individual rats R04-R06, read-out: F (bioavailability)
  bioavailability: 1.82%
po, 10 mg/kg, read-out: F (bioavailability), mean
  bioavailability: 1.82%
[3]
  concentration at 0.25 h: 23.9 ng/mL
  concentration at 0.5 h: 18.1 ng/mL
  concentration at 1 h: 5.83 ng/mL
  concentration at 2 h: 6.5 ng/mL
  concentration at 4 h: 1.79 ng/mL
[4]
  concentration at 0.5 h: 14.1 ng/mL
  concentration at 4 h: 1.99 ng/mL
po, 10 mg/kg, PO 10 mg/kg, individual rats R04-R06, read-out: AUCInf
  AUC(0-inf): 32.4 ng·h/mL
po, 10 mg/kg, PO 10 mg/kg, individual rats R04-R06, read-out: Cmax
  Cmax: 39 ng/mL
po, 10 mg/kg, PO 10 mg/kg, individual rats R04-R06, read-out: MRTInf_obs
  MRT inf: 111 min
po, 10 mg/kg, PO 10 mg/kg, individual rats R04-R06, read-out: Tmax
  Tmax: 15 min
po, 10 mg/kg, PO 10 mg/kg, read-out: AUCInf, mean
  AUC(0-inf): 32.3 ng·h/mL
po, 10 mg/kg, PO 10 mg/kg, read-out: AUClast, mean
  AUC(0-t): 28.6 ng·h/mL
po, 10 mg/kg, PO 10 mg/kg, read-out: Cmax, mean
  Cmax: 27.7 ng/mL
po, 10 mg/kg, PO 10 mg/kg, read-out: MRTInf_obs, mean
  MRT inf: 114 min
po, 10 mg/kg, PO 10 mg/kg, read-out: T1/2, mean (converted)
  half-life: 90.6 min
po, 10 mg/kg, PO 10 mg/kg, read-out: Tmax, mean
  Tmax: 20 min
po, 10 mg/kg, PO administration, male SD rats, read-out: Plasma half-life (converted)
  half-life: ~90.6 min
